# Measurements: patent US20260216103A1, “USE OF LONG-ACTING ß2AR AGONIST IN PREPARATION OF DRUGS FOR TREATING CANCERS” (HONG KONG SXMETEROL PHARMACEUTICAL CO., LIMITED, priority 2023, published 2026)
# Key:
# [1] = test system: hematoma cells SU-DHL-8; assay: tumor sphere formation assay of hematoma cells; type: cell-based; details: 1 μM, 3 μM, or 10 μM, 7 d; FIG. 18
# From the text: (§1) As a gold standard for detecting the self-renewal capability of cancer stem cells in vitro, a tumor sphere formation assay may detect individual cancer stem cell that continuously self-renew in a conditioned medium and form tumor spheres consisting of multiple cells. This in vitro experiment is often used to test the responsiveness of clinical patients to anticancer drugs, and guide in vivo medication of the clinical patients.
# [2] = test system: LLC lung cancer cells; assay: subcutaneous tumorigenesis experiment with SX-pretreated lung cancer cells (LLC); type: in vivo, mice; details: cells treated with 10 μM SX for 7 d
# Experimental: (§2) Experimental method and steps: Cancer cells were treated with salmeterol xinafoate (SX) in vitro for 3-7 d, and a subcutaneous or orthotopic tumorigenesis experiment was conducted on mice.
# In FIG. 6B, LLC lung cancer cells were treated with 10 μM salmeterol xinafoate (SX) for 7 d, and cells (1×10^5/mouse) were subcutaneously injected on both sides of the back of mice in a control group (8 mice) and an SX treated group (5 mice) to conduct a tumorigenesis experiment.
# (§3) Experimental results in FIG. 6 show cancer growth curves and representative cancer photos.
# [3] = test system: KYSE-150 esophageal cancer cells; assay: subcutaneous tumorigenesis experiment with SX-pretreated esophageal cancer cells; type: in vivo, mice; details: cells treated with 10 μM SX for 3 d, 1×10^6/mouse; FIG. 8; P<0.0001 vs control
# Experimental: as §2
# KYSE-150 esophageal cancer cells were treated with 10 μM salmeterol xinafoate (SX) for 3 d, and cells (1×10^6/mouse) were subcutaneously injected on both sides of the back of mice in a control group and an SX treated group (3 mice/group) to conduct a tumorigenesis experiment.
# Experimental results in FIG. 8 show cancer growth curves.
# [4] = test system: cervical cancer cells Hela; assay: tumor sphere formation assay of cervical cancer cells; type: cell-based; details: 1 μM, 3 μM, or 10 μM, 7 d; FIG. 27
# From the text: as §1
# [5] = test system: brain cancer cells SF126; assay: tumor sphere formation assay of brain cancer cells; type: cell-based; details: 1 μM, 3 μM, or 10 μM, 7 d; FIG. 25
# From the text: as §1
# [6] = test system: RT4 bladder cancer cells; assay: subcutaneous tumorigenesis experiment with SX-pretreated bladder cancer cells; type: in vivo, mice; details: cells treated with 10 μM SX for 3 d, 1×10^6/mouse; FIG. 9; P<0.0001 vs control
# Experimental: as §2
# RT4 bladder cancer cells were treated with 10 μM salmeterol xinafoate (SX) for 3 d, and cells (1×10^6/mouse) were subcutaneously injected on both sides of the back of mice in a control group and an SX treated group (5 mice/group) to conduct a tumorigenesis experiment.
# Experimental results in FIG. 9 show cancer growth curves.
# [7] = test system: a variety of cancers; assay: orthotopic or subcutaneous tumorigenesis experiments in mice, summary; details: summary of in vivo tumorigenesis experiments; drug concentration of 10 μM
# Experimental: as §2
# [8] = test system: melanoma cells B16F10, A375, A2058; assay: tumor sphere formation assay of melanoma cells; type: cell-based; details: 1 μM, 3 μM, or 10 μM, 7 d; FIG. 17
# From the text: as §1
# [9] = test system: H460 lung cancer cells; assay: subcutaneous tumorigenesis experiment with SX-pretreated lung cancer cells (H460); type: in vivo, mice; details: cells treated with 10 μM SX for 7 d
# Experimental: as §2
# In FIG. 6A, H460 lung cancer cells were treated with 10 μM salmeterol xinafoate (SX) for 7 d, and cells (3×10^5/mouse) were subcutaneously injected on both sides of the back of mice in a control group (7 mice) and an SX treated group (5 mice) to conduct a tumorigenesis experiment.
# as §3
# [10] = test system: MDA-MB-231 breast cancer cells; assay: orthotopic tumorigenesis experiment with SX-pretreated breast cancer cells; type: in vivo, mice; details: cells treated with 10 μM SX for 7 d
# Experimental: as §2
# MDA-MB-231 breast cancer cells were treated with 10 μM salmeterol xinafoate (SX) for 7 d, and cells (1×10^4/mouse) were injected into the orthotopic mammary fat pads on both sides of the body of mice in a control group and an SX treated group (5 mice/group) to conduct a tumorigenesis experiment. 8 orthotopic cancers formed at 10 injection sites in the orthotopic mammary fat pads of 5 mice in the control group, and only 6 orthotopic cancers formed at 10 injection sites in the orthotopic mammary fat pads of 5 mice in the SX treated group.
# Experimental results in FIG. 4 show cancer growth curves and representative cancer photos.
# [11] = test system: gastric cancer cells SNU-1; assay: tumor sphere formation assay of gastric cancer cells; type: cell-based; details: 10 μM, 7 d; FIG. 23; P<0.001
# From the text: as §1
# According to culture conditions in Table 13, gastric cancer cells SNU-1 were subjected to a tumor sphere formation assay, and treated with salmeterol xinafoate (SX) at a concentration of 10 μM.
# [12] = test system: bladder cancer cells RT4; assay: tumor sphere formation assay of bladder cancer cells; type: cell-based; details: 1 μM, 3 μM, or 10 μM, 7 d; FIG. 16
# From the text: as §1
# [13] = test system: head and neck cancer cells CAL-27; assay: tumor sphere formation assay of head and neck cancer cells; type: cell-based; details: 1 μM, 3 μM, or 10 μM, 7 d; FIG. 14
# From the text: as §1
# [14] = test system: osteosarcoma cells U2OS; assay: tumor sphere formation assay of osteosarcoma cells; type: cell-based; details: 1 μM, 3 μM, or 10 μM, 7 d; FIG. 26; P<0.01
# From the text: as §1
# [15] = test system: cancer stem cells of 17 cancers; assay: tumor sphere formation assays of cancer cells, summary over 17 cancers; type: cell-based; details: summary of Examples 1-9; agonist used alone
# From the text: as §1
# Cancer stem cells have self-renewal capability, which determines the initiation and progression of cancers. As a gold standard for detecting the self-renewal capability of cancer stem cells in vitro, a tumor sphere formation assay may detect individual cancer stem cells that continuously self-renew in a conditioned medium and form tumor spheres consisting of multiple cells.
# [16] = test system: B16F10 melanoma cells; assay: tumorigenesis experiment with SX-pretreated melanoma cells; type: in vivo, mice; details: cells treated with 10 μM SX for 3 d
# Experimental: as §2
# B16F10 melanoma cells were treated with 10 μM salmeterol xinafoate (SX) for 3 d, and cells (1×10^6/mouse) were subcutaneously injected on both sides of the back of mice in a control group and an SX treated group (4 mice/group) to conduct a tumorigenesis experiment. Cancers formed subcutaneously at all 8 injection sites of 4 mice in the control group, and cancers formed subcutaneously also at all 8 injection sites of 4 mice in the SX treated group.
# Experimental results in FIG. 10 show cancer growth curves and representative cancer photos.
compound,measurement,setting,value
OCc1cc(C(O)CNCCCCCCOCCCCc2ccccc2)ccc1O (centres unmarked) [salmeterol xinafoate],number of tumor spheres (self-renewal capability of cancer stem cells),[1],inhibited the self-renewal capability of the hematoma stem cells in a concentration dependent manner
same,cancers formed subcutaneously at injection sites,"[2]; 1×10^5/mouse, 10 injection sites of 5 mice, control group all 16 sites",no cancers formed
same,cancer growth curves (initiation and progression),"[2]; FIG. 6B, P<0.0001 vs control",inhibits the initiation and progression of subcutaneous lung cancer
same,cancer growth curves (initiation and progression),[3],inhibits the initiation and progression of subcutaneous esophageal cancer
same,number of tumor spheres (self-renewal capability of cancer stem cells),[4],inhibited the self-renewal capability of the cervical cancer stem cells in a concentration dependent manner
same,number of tumor spheres (self-renewal capability of cancer stem cells),[5],inhibited the self-renewal capability of the brain cancer stem cells in a concentration dependent manner
same,cancer growth curves (initiation and progression),[6],inhibits the initiation and progression of subcutaneous bladder cancer
same,cancer initiation and cancer growth,[7],not only inhibiting cancer initiation but also significantly inhibiting cancer growth
same,number of tumor spheres (self-renewal capability of cancer stem cells),[8],inhibited the self-renewal capability of the melanoma stem cells in a concentration dependent manner
same,cancers formed subcutaneously at injection sites,"[9]; 3×10^5/mouse, 10 injection sites of 5 mice, control group 11 at 14 sites",no cancers formed
same,cancer growth curves (initiation and progression),"[9]; FIG. 6A, P<0.0001 vs control",inhibits the initiation and progression of subcutaneous lung cancer
same,orthotopic cancers formed at injection sites,"[10]; 1×10^4/mouse into orthotopic mammary fat pads, 10 injection sites of 5 mice, control group 8",6
same,cancer growth curves (initiation and progression),"[10]; FIG. 4, P<0.0001 vs control",inhibits the initiation and progression of orthotopic breast cancer
same,number of tumor spheres (self-renewal capability of cancer stem cells),[11],inhibited the self-renewal capability of the gastric cancer stem cells
same,number of tumor spheres (self-renewal capability of cancer stem cells),[12],inhibited the self-renewal capability of the bladder cancer stem cells in a concentration dependent manner
same,number of tumor spheres (self-renewal capability of cancer stem cells),[13],inhibited the self-renewal capability of the head and neck cancer stem cells
same,number of tumor spheres (self-renewal capability of cancer stem cells),[14],inhibited the self-renewal capability of the osteosarcoma cancer stem cells
same,self-renewal capability of cancer stem cells,[15],can significantly inhibit the self-renewal capability of cancer stem cells of 17 cancers
same,cancers formed subcutaneously at injection sites,"[16]; 1×10^6/mouse, 8 injection sites of 4 mice, control group all 8 sites",8
same,cancer growth curves (initiation and progression),"[16]; FIG. 10, P<0.0001 vs control",inhibits the initiation and progression of orthotopic melanoma
